Counter-ions that a name gives are not always drawn.
Target: T1, SMARCA2 (Homo sapiens, UniProt P51531)
T1 construct: fused on or other part: His tag (6His), detected by the anti-6His terbium cryptate antibody
Experiment: SMARCA2 HTRF assay
Conditions: His-tagged SMARCA2-17, average, read-out: SMARCA2 binding Human HTRF: Average IC50
Description: Sample handling: 1× Epigenetics Buffer is prepared according to manufacturer's instructions. 32 nM SMARCA2-17 (4×) is prepared with Epigenetics Buffer. 4×Tb working solution is prepared by diluting Mab Anti 6His Tb cryptate Gold in PPI-Terbium Detection buffer to 0.21 ng/μ1 (100× dilution from stock). SMARCA2-mAb-Tb working solution is prepared by mixing equal volume of 32 nM SMARCA2 with Tb working solution. A half-hour timer is started. In a 96-well plate, serial dilution of compound DMSO solutions is prepared. […] of Epigenetics Buffer is placed to a second 96-well plate. 1 μl of the 100× compound DMSO solution is transferred to the second 96-well plate to make 4× compound working solution. 5 μl/well of 4× compound working solution is added into the 384-well plate and mixed well. […] of SMARCA2-mAb-Tb working solution is added into 384-well plate. The above mixtures are incubated at room temperature for 30 min. Data is collected and processed on EnVision. 520 nm/495 nm readouts ratio are calculated from raw data.
The letter codes for SMARCA2 average IC50 (μM) include: A (<1 μM), B (1-50 μM), C (51-200 μM), and D (>200 μM).

T1 sequence (P51531 whole entry, the tested form may be a part): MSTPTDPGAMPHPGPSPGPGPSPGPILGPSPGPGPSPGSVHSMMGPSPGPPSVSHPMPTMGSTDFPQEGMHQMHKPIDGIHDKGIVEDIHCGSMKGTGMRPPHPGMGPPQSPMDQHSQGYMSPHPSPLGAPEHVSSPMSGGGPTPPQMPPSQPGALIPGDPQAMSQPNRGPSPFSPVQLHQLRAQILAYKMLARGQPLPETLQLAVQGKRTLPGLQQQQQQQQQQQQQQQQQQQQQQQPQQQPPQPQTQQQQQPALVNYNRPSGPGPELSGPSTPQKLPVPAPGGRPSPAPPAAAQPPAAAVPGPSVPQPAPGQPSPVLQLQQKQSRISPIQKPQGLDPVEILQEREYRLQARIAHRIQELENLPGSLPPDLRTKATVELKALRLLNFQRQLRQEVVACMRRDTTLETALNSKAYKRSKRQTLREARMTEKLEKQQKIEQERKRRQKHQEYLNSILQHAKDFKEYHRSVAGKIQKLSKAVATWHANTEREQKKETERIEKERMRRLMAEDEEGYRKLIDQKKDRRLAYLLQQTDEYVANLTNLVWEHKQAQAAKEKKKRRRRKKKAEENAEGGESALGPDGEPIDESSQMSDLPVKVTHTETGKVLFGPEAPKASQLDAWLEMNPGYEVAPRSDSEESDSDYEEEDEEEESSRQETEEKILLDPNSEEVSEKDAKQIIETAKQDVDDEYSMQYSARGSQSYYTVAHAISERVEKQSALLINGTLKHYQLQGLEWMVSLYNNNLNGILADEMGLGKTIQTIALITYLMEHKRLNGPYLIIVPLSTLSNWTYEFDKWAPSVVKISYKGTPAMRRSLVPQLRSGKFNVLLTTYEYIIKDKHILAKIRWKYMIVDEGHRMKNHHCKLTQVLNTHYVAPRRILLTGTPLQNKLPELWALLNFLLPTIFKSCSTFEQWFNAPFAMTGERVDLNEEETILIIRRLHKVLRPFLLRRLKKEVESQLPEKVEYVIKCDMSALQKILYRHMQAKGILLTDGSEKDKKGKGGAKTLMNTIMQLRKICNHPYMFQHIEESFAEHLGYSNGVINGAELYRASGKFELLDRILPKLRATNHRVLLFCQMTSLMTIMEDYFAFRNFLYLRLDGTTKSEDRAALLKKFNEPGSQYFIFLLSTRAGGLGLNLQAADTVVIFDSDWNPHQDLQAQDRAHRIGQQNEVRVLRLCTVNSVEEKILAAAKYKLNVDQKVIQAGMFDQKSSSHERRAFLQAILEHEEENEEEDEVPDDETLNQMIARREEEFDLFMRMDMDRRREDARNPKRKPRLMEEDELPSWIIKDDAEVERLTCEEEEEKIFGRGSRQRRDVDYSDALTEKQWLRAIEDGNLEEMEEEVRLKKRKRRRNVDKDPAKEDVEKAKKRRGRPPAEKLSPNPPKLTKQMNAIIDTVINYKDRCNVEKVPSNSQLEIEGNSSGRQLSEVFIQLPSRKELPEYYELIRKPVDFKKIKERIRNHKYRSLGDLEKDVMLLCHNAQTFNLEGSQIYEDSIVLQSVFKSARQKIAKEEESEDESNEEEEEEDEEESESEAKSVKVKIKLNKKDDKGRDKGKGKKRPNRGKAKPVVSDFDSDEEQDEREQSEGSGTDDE

Row | Structure (SMILES) | IC50 [µM]
1 | Oc1ccccc1-c1cc2c(cc3n2CCN(c2ncccn2)C3)nn1 [I-123, 2-(8-(pyrimidin-2-yl)-6,7,8,9-tetrahydropyrazino[1′,2′:1,5]pyrrolo[3,2-c]pyridazin-3-yl)phenol] | 1 to 50
2 | O=c1[nH]c2nnc(-c3ccccc3O)cc2c2c1CNCC2 [I-2, 2-(2-hydroxyphenyl)-7,8,9,10-tetrahydro-5H-pyridazino[3,4-c][2,7]naphthyridin-6-one] | 1 to 50
3 | Nc1ncc(N2CCNCC2=O)cc1N1CCNCC1 [I-73, 1-(6-amino-5-piperazin-1-yl-3-pyridyl)piperazin-2-one] | > 200
4 | C[C@@H]1c2c([nH]c3nnc(-c4ccccc4O)cc23)CCN1c1nccc(C2CCNCC2)n1 [I-110, (R)-2-(5-methyl-6-(4-(piperidin-4-yl)pyrimidin-2-yl)-6,7,8,9-tetrahydro-5H-pyrido[3′,4′:4,5]pyrrolo[2,3-c]pyridazin-3-yl)phenol] | < 1
5 | O=C1Nc2nnc(-c3ccccc3O)cc2C12CCN(c1ccccc1)CC2 [I-64, 3-(2-hydroxyphenyl)-1′-phenyl-spiro [7H-pyrrolo[2,3-c]pyridazine-5,4′-piperidine]-6-one] | 1 to 50
6 | O=c1[nH]c2nnc(-c3ccccc3O)cc2n2cc(C3CCNCC3)cc12 [I-125, 2-(2-hydroxyphenyl)-8-(piperidin-4-yl)pyrrolo[1′,2′:4,5]pyrazino[2,3-c]pyridazin-6(5H)-one] | 1 to 50
7 | C[C@H]1c2c([nH]c3nnc(-c4ccccc4O)cc23)CCN1c1ncc(C2CCNCC2)cn1 [I-113, (S)-2-(5-methyl-6-(5-(piperidin-4-yl)pyrimidin-2-yl)-6,7,8,9-tetrahydro-5H-pyrido[3′,4′:4,5]pyrrolo[2,3-c]pyridazin-3-yl)phenol] | < 1
8 | Oc1ccccc1-c1ccc(NC2CCNCC2)nn1 [I-127, 2-[6-(4-piperidylamino)pyridazin-3-yl]phenol] | 1 to 50
9 | Nc1ncc(N2CCNC2=O)cc1N1CCNCC1 [I-71, 1-(6-amino-5-piperazin-1-yl-3-pyridyl)imidazolidin-2-one] | > 200
10 | Oc1ccccc1-c1cc2c(nn1)NCC1CNCCN21 (centres unmarked) [I-120, 2-(6,6a,7,8,9,10-hexahydro-5H-pyrazino[1′,2′:4,5]pyrazino[2,3-c]pyridazin-2-yl)phenol 2,2,2-trifluoroacetate] | 1 to 50
11 | C[C@H]1NCCc2[nH]c3nnc(-c4ccccc4O)cc3c21 [I-115, (R)-2-(5-methyl-6,7,8,9-tetrahydro-5H-pyrido[3′,4′:4,5]pyrrolo[2,3-c]pyridazin-3-yl)phenol] | 51 to 200
12 | CC(C)(C)OC(=O)N1CC=C(c2cc3c(=O)[nH]c4nnc(-c5ccccc5O)cc4n3c2)CC1 [I-124, tert-butyl 4-(2-(2-hydroxyphenyl)-6-oxo-5,6-dihydropyrrolo[1′,2′:4,5]pyrazino[2,3-c]pyridazin-8-yl)-5,6-dihydropyridine-1(2H)-carboxylate] | 1 to 50
13 | O=C1Nc2nnc(-c3ccccc3O)cc2C12CCNCC2 [I-7, 3-(2-hydroxyphenyl)spiro[7H-pyrrolo[2,3-c]pyridazine-5,4′-piperidine]-6-one] | > 200
14 | Oc1ccccc1-c1cc2c(nn1)NC[C@@H]1CN(c3ncccn3)CCN21 [I-106, (R)-2-(8-(pyrimidin-2-yl)-6,6a,7,8,9,10-hexahydro-5H-pyrazino[1′,2′:4,5]pyrazino[2,3-c]pyridazin-2-yl)phenol] | < 1
15 | O=C1Nc2nnc(-c3ccccc3O)cc2C12CCN(Cc1ccccc1)CC2 [I-121, 1′-benzyl-3-(2-hydroxyphenyl)spiro[7H-pyrrolo[2,3-c]pyridazine-5,4′-piperidine]-6-one] | 1 to 50
16 | CC(=O)Nc1cnc(N)c(-c2cnn(C)c2)c1C [I-129, N-[6-amino-4-methyl-5-(1-methylpyrazol-4-yl)-3-pyridyl]acetamide] | > 200

Row | Structure (SMILES) | IC50 [µM]
17 | C[C@@H]1c2c([nH]c3nnc(-c4ccccc4O)cc23)CCN1c1ncc(C2CCNCC2)cn1 [I-112, (R)-2-(5-methyl-6-(5-(piperidin-4-yl)pyrimidin-2-yl)-6,7,8,9-tetrahydro-5H-pyrido[3′,4′:4,5]pyrrolo[2,3-c]pyridazin-3-yl)phenol] | < 1
18 | Oc1ccccc1-c1cc2c(nn1)NC[C@H]1CNCCN21 [I-108, (R)-2-(6,6a,7,8,9,10-hexahydro-5H-pyrazino[1′,2′:4,5]pyrazino[2,3-c]pyridazin-2-yl)phenol] | 1 to 50
19 | COCCNc1nnc(-c2ccccc2O)cc1N1CCNCC1 [I-101, 2-[6-(2-methoxyethylamino)-5-piperazin-1-yl-pyridazin-3-yl]phenol] | > 200
20 | Oc1ccccc1-c1cc(N2CCNCC2)c(NC2COC2)nn1 [I-128, 2-[6-(oxetan-3-ylamino)-5-piperazin-1-yl-pyridazin-3-yl]phenol] | 51 to 200
21 | O=c1[nH]c2nnc(-c3ccccc3O)cc2c2c1CCNC2 [I-1, 9-(2-hydroxyphenyl)-1,2,3,4-tetrahydropyridazino[3,4-c][2,6]naphthyridin-5(6H)-one hydrochloride] | 1 to 50
22 | Oc1ccccc1-c1cc2c(nn1)NC[C@H]1CN(c3ncccn3)CCN21 [I-107, (S)-2-(8-(pyrimidin-2-yl)-6,6a,7,8,9,10-hexahydro-5H-pyrazino[1′,2′:4,5]pyrazino[2,3-c]pyridazin-2-yl)phenol] | < 1
23 | C[C@H]1c2c([nH]c3nnc(-c4ccccc4O)cc23)CCN1c1nccc(C2CCNCC2)n1 [I-111, (S)-2-(5-methyl-6-(4-(piperidin-4-yl)pyrimidin-2-yl)-6,7,8,9-tetrahydro-5H-pyrido[3′,4′:4,5]pyrrolo[2,3-c]pyridazin-3-yl)phenol] | < 1
24 | C[C@H]1c2c([nH]c3nnc(-c4ccccc4O)cc23)CCN1c1ncccn1 [I-118, (S)-2-(5-methyl-6-(pyrimidin-2-yl)-6,7,8,9-tetrahydro-5H-pyrido[3′,4′:4,5]pyrrolo[2,3-c]pyridazin-3-yl)phenol] | < 1
25 | O=C1NCCc2[nH]c3nnc(-c4ccccc4O)cc3c21 [I-119, 3-(2-hydroxyphenyl)-6,7,8,9-tetrahydro-5H-pyrido[3′,4′:4,5]pyrrolo[2,3-c]pyridazin-5-one] | 1 to 50
26 | CC(=O)Nc1nnc(-c2ccccc2O)cc1N1CCNCC1 [I-102, N-[6-(2-hydroxyphenyl)-4-piperazin-1-yl-pyridazin-3-yl]acetamide] | 51 to 200
27 | CC(=O)n1ncc2c(-c3cnn(C)c3)c(N)ncc21 [I-126, 1-[5-amino-4-(1-methylpyrazol-4-yl)pyrazolo[3,4-c]pyridine-1-yl]ethanone] | > 200
28 | C[C@@H]1c2c([nH]c3nnc(-c4ccccc4O)cc23)CCN1c1ncccn1 [I-116, (R)-2-(5-methyl-6-(pyrimidin-2-yl)-6,7,8,9-tetrahydro-5H-pyrido[3′,4′:4,5]pyrrolo[2,3-c]pyridazin-3-yl)phenol] | < 1
29 | Oc1ccccc1-c1cc2c(nn1)[nH]c1ccc(C3CCNCC3)cc12 [I-114, 2-(6-(piperidin-4-yl)-9H-pyridazino[3,4-b]indol-3-yl)phenol] | < 1
30 | Nc1ncc(N2C(=O)CCC2=O)cc1N1CCNCC1 [I-70, 1-(6-amino-5-(piperazin-1-yl)pyridin-3-yl)pyrrolidine-2,5-dione] | > 200
31 | C[C@@H]1NCCc2[nH]c3nnc(-c4ccccc4O)cc3c21 [I-117] | 51 to 200
32 | Nc1ncc2c(Cl)cccc2c1N1CCNCC1 [I-74, 8-chloro-4-(piperazin-1-yl)isoquinolin-3-amine] | > 200

Reference: patent US12569485B2, “SMARCA inhibitors and uses thereof” (Kymera Therapeutics, Inc., priority 2019, dated 2026)
